According to US5449667A, “Amidothiophosphate derivative and insecticide, nematocide and acaricide containing the same as active ingredient” (priority 1993, dated 1995):

Tests used:
[1] = Acute toxicity in oral application to mice; settings: mouse, in vivo, 5 mg/kg, ICR male mice, after seven days
Protocol: Biological Test 9 Acute Toxicity in Oral Application to Mice
Each of the present compound was diluted with corn oil to a predetermined concentration. After subjecting the mice to a twenty-hour fasting, 0.1 ml of the diluted solution per 10 g weight was forcibly applied into the stomach of each ICR male 6-week old mouse (weight: 24 to 31 g). The mice were given food and water four hours after the application and thereafter regularly fed and watered, and kept in a cage. After seven days, the mortality was examined for the mice (4 mice/group).

[2] = tested on: larvae of Spodoptera litura; test: Insecticidal activity against larvae of Spodoptera litura; format: in vivo; settings: 144 h, 4-instar larvae, artificial bait, after six days
Protocol: Biological Test 1 Insecticidal Activity Against Larvae of Spodoptera litura
Emulsifiable concentrates were prepared for each of the present compounds according to the formulation example 1. Thirteen grams of artificial bait for Spodoptera litura were placed in a polyethylene cup (diameter: 11 cm) and impregnated with 2 ml of the emulsifiable concentrate diluted with water (500 ppm). Ten 4-instar larvae of Spodoptera litura were put in the polyethylene cup. After six days, the mortality of the larvae was examined.

[3] = tested on: larvae of Nilaparvata lugens; test: Insecticidal activity against larvae of Nilaparvata lugens; format: in vivo; settings: 500 ppm aqueous solution, rice stalk dip, approximately 30 larvae, after six days
Protocol: Biological Test 2 Insecticidal Activity Against Larvae of Nilaparvata lugens
A stalk of a rice plant was dipped for one minute in a 500 ppm aqueous solution obtained by diluting each emulsifiable concentrate prepared from each of the present compounds according to the formulation example 1 and then air-dried. The rice plant stalk was placed in a polyethylene cup (diameter: 5.5 cm) where filter paper (diameter: 5.5 cm) impregnated with 1 ml of water was put. Approximately 30 larvae of Nilaparvata lugens were put in the polyethylene cup. After six days, the activity was evaluated according to the following criteria:
B: the number of the living larvae is not greater than 5
C: the number of the living larvae is 6 or more

Blattella germanica = test: Insecticidal activity against Blattella germanica; format: in vivo; settings: 24 h, 0.7 ml of 500 ppm on filter paper, ten male cockroaches, after one day
Protocol: Biological Test 3 Insecticidal Avtivity Against Blattella germanica
(§1) Filter paper of 5.5 cm in diameter was laid in the bottom of a polyethylene cup (diameter: 5.5 cm). After 0.7 ml of a 500 ppm aqueous solution obtained by diluting each emulsifiable concentrate prepared from each of the present compounds according to the formulation example 1 was dropped on the filter paper and approximately 30 mg of sucrose was uniformly scattered and put on the filter paper as bait, ten male cockroaches (Blattella germanica) were left in the cup with a cover. After one day, the mortality was examined for the cockroaches.

Musca domestica = test: Insecticidal activity against Musca domestica; format: in vivo; settings: 24 h, 0.7 ml of 500 ppm on filter paper, ten female house flies, after one day
Protocol: Biological Test 4 Insecticidal Activity Against Musca domestica
as §1, with “scattered,” for “scattered”, “female house flies (Musca domestica)” for “male cockroaches (Blattella germanica)”, “flies.” for “cockroaches.”

[4] = tested on: larvae of Diabrotica undecimpunctata; test: Insecticidal activity against larvae of Diabrotica undecimpunctata; format: in vivo; settings: 1 ml of 50 ppm on filter paper, approximately thirty eggs, after eight days
Protocol: Biological Text 5 Insecticidal Activity Against Larvae of Diabrotica undecimpunctata
Filter paper of 5.5 cm in diameter was laid in the bottom of a polyethylene cup (diameter: 5.5 cm). After 1 ml of a 50 ppm aqueous solution obtained by diluting each of the emulsifiable concentrate prepared from each of the present compounds according to the formulation example 1 was dropped on the filter paper and one sprouting corn crop was placed as bait on the paper, approximately thirty eggs of Diabrotica undecimpunctata were left on the filter paper. After eight days, the rate of hatched larvae was examined. The activity were evaluated according to the following criteria:
B: Mortality not less than 90% but less than 100%
C: Mortality less than 90%

root-knot nematodes = test: Activity against root-knot nematodes; format: in vivo; design: key: -: substantially no root knots; +: several to ten odds root knots; ++: larger number of root knots (heavier damage than +); settings: 25 ppm active ingredient in soil, tomato root, after four weeks
Protocol: Biological Test 6 Activity Against Root-knot Nematodes
One ml of a 500 ppm aqueous solution of each of the present compounds obtained by diluting each emulsifiable concentrate prepared from each of the present compounds according to the formulation example 1 was mixed with 19 g of soil contaminated with root-knot nematodes (concentration of active ingredient in soil: 25 ppm). After the soil was kept at 27° C. for 24 hours, the root of a tomato plant (approximately two weeks after sprouting) in a cup was covered with the soil and some water was given to the plant. After four weeks, damage to the root of the tomato plant was evaluated according to the following criteria:
-: substantially no root knots
+: several to ten odds root knots
++: larger number of root knots (heavier damage than +)

[5] = tested on: larvae of Culex pipiens pallens; test: Insecticidal activity against larvae of Culex pipiens pallens; format: in vivo; settings: 3.5 ppm active ingredient in water, twenty last-instar larvae, after one day
Protocol: Biological Test 7 Insecticidal Activity Against Larvae of Culex pipiens pallens
Each of emulsifiable concentrates prepared from each of the present compounds according to the formulation example 1 was diluted with water, and 0.7 ml of the diluted solution was added to 100 ml of ion-exchanged water (concentration of active ingredient: 3.5 ppm). Twenty last-instar larvae of Culex pipiens pallens were left in the water. After one day, the activity was evaluated according to the following criteria:
A: Mortality not less than 90%
B: Mortality not less than 10% but less than 90%
C: Mortality less than 10%

Tetranychus cinnabarinus = test: Activity against Tetranychus cinnabarinus; format: in vivo; design: key: -: substantially no damage; +: little damage; ++: heavy damage; settings: 500 ppm, 15 ml spray plus 2 ml soil injection, kidney bean, after eight days
Protocol: Biological Test 8 Activity Against Tetranychus cinnabarinus
Ten male mites (Tetranychus cinnabarinus) per leaf were placed on a pot-planted kidney bean (Phasseolus vulgaris: seven days after sowing) and kept in a thermostatic chamber. After six days, 15 ml of a 500 ppm aqueous solution obtained by diluting each emulsifiable concentrate of each of the present compounds according to the formulation example 1 was sprayed in a pot simultaneously with injection of 2 ml of the solution into soil. After eight days, damage to the plant by Tetranychus cinnabarinus was evaluated according to the following criteria:
-: substantially no damage

Structure (SMILES)	mortality at 168 h [1] [%]	mortality at 500 ppm [2] [%]	Activity [3]	mortality at 500 ppm (Blattella germanica) [%]	mortality at 500 ppm (Musca domestica) [%]	Activity [4]	Activity (root-knot nematodes)	Activity [5]	Activity (Tetranychus cinnabarinus)
CCC(C)SP(=O)(NC)OC (stereo not drawn) [A, reference compound]	100								
CCCSP(=O)(OC)N(CC#N)C(=O)OC (stereo not drawn) [Compound 1]		100	A (no living larvae)	100	100	A (Mortality 100%)	-	A (Mortality not less than 90%)	-
CCCSP(=O)(OC)N(CC#N)C(=O)OCC (stereo not drawn) [Compound 2]		100	A (no living larvae)	100	100	A (Mortality 100%)	-	A (Mortality not less than 90%)	-
CCCSP(=O)(OC)N(CC#N)C(=O)OC(C)C (stereo not drawn) [Compound 3]		100	A (no living larvae)	100	100	A (Mortality 100%)	-	A (Mortality not less than 90%)	-
CCC(C)SP(=O)(OC)N(CC#N)C(=O)OC (stereo not drawn) [Compound 4]		100	A (no living larvae)	100	100	A (Mortality 100%)	-	A (Mortality not less than 90%)	-
CCCSP(=O)(OC)N(CCC#N)C(=O)SC (stereo not drawn) [Compound 5]		100			100	A (Mortality 100%)	-		-
CCOC(=O)N(CC#N)P(=O)(OC)SC(C)CC (stereo not drawn) [Compound 6]		100	A (no living larvae)	100	100	A (Mortality 100%)	-	A (Mortality not less than 90%)	-
CCCSP(=O)(OCC)N(CC#N)C(=O)OC (stereo not drawn) [Compound 7]		100	A (no living larvae)	100	100	A (Mortality 100%)	-	A (Mortality not less than 90%)	-
CCCSP(=O)(OCC)N(CC#N)C(=O)OCC (stereo not drawn) [Compound 8]		100	A (no living larvae)	100	100	A (Mortality 100%)	-	A (Mortality not less than 90%)	-
CCOC(=O)N(CC#N)P(=O)(OCC)SC(C)CC (stereo not drawn) [Compound 10]		100		100	100	A (Mortality 100%)	-	A (Mortality not less than 90%)	-
CCOP(=O)(SC(C)CC)N(CC#N)C(=O)SC (stereo not drawn) [Compound 11]		100		100	100	A (Mortality 100%)	-	A (Mortality not less than 90%)	-
CCCSC(=O)N(CC#N)P(=O)(OCC)SC(C)CC (stereo not drawn) [Compound 12]		100		100	100	A (Mortality 100%)	-	A (Mortality not less than 90%)	-
CCOP(=O)(SC(C)CC)N(CC#N)C(=O)Oc1ccccc1 (stereo not drawn) [Compound 14, O-ethyl S-sec-butyl N-cyanomethyl N-phenoxycarbonyl phosphoroamidothiolate]		100	A (no living larvae)	100	100	A (Mortality 100%)	-	A (Mortality not less than 90%)	-
CCC(C)SP(=O)(OC)N(CC#N)C(=O)Oc1ccccc1 (stereo not drawn) [Compound 15]									-
CCOP(=O)(SC(C)CC)N(CC#N)C(=O)c1ccccc1 (stereo not drawn) [Compound 16]		100	A (no living larvae)	100	100	A (Mortality 100%)	-	A (Mortality not less than 90%)	-
CCOP(=O)(SC(C)CC)N(CC#N)C(=O)OC(C)C (stereo not drawn) [Compound 17]		100	A (no living larvae)	100	100	A (Mortality 100%)	-	A (Mortality not less than 90%)	-
CCOP(=O)(SC(C)CC)N(CC#N)C(=O)OCC(C)C (stereo not drawn) [Compound 18]		100	A (no living larvae)	100	100	A (Mortality 100%)	-	A (Mortality not less than 90%)	-
CCCSC(=O)N(CCC#N)P(=O)(OCC)SC(C)CC (stereo not drawn) [Compound 19]				100	100	A (Mortality 100%)	-	A (Mortality not less than 90%)	-
CCOC(=O)N(CCC#N)P(=O)(OCC)SC(C)CC (stereo not drawn) [Compound 20]		100		100	100	A (Mortality 100%)	-	A (Mortality not less than 90%)	-
